Experimental data: US9669003B2, “Use of flavone and flavanone derivatives in preparation of sedative and hypnotic drugs” (priority 2012, dated 2017)
Marks after values point to notes of the source that are not given here.

Test system: Kunming mice
Assay: Influence on autonomic activity of normal mice (ZIL-2 mice autonomic activity meter, counts within 10 min)
Type: in vivo
Settings: intragastric, 25 mg/kg, 1 h after administration, x ± s, n = 10
In short: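 Activity counts during a 10-min window were taken at 1, 2 and 24 h after dosing in groups of 10 mixed-sex Kunming mice. Compounds were given in 0.5% CMC-Na at 25, 50 or 100 mg/kg. Statistics used Levene's homogeneity test, ANOVA and Dunnett's multiple comparisons.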

Compound	Times of activities in 1 h after drug administration/10 min
COc1ccc(C2CC(=O)c3cc(CCS(=O)(=O)O)c(C4CCNC4)c(N)c3O2)cc1SC#N (stereo not drawn) [Example 55]	232.5 ± 66.1 /10 min
COc1cc(-c2cc(=O)c3c(OC)c(OC)c(OC)c(OC)c3o2)cc(OC)c1OC [Example 15, 5,6,7,8,3′,4′,5′-heptamethoxyl-flavone]	287.1 ± 39.1 /10 min
CC=Cc1cc(C(=O)O)c2c(=O)cc(-c3cc(C#N)c(F)c(C(=O)O)c3)oc2c1 [Example 22]	320.3 ± 54.3 /10 min

Same assay, conditions: intragastric, 25 mg/kg, 2 h after administration, x ± s, n = 10

Compound	Times of activities in 2 h after drug administration/10 min
COc1ccc(C2CC(=O)c3cc(CCS(=O)(=O)O)c(C4CCNC4)c(N)c3O2)cc1SC#N (stereo not drawn) [Example 55]	229.8 ± 75.0 /10 min
COc1cc(-c2cc(=O)c3c(OC)c(OC)c(OC)c(OC)c3o2)cc(OC)c1OC [Example 15, 5,6,7,8,3′,4′,5′-heptamethoxyl-flavone]	255.1 ± 42.9 /10 min
CC=Cc1cc(C(=O)O)c2c(=O)cc(-c3cc(C#N)c(F)c(C(=O)O)c3)oc2c1 [Example 22]	291.3 ± 42.0 /10 min

Same assay, conditions: intragastric, 25 mg/kg, 24 h after administration, x ± s, n = 10

Compound	Times of activities in 24 h after drug administration/10 min
COc1ccc(C2CC(=O)c3cc(CCS(=O)(=O)O)c(C4CCNC4)c(N)c3O2)cc1SC#N (stereo not drawn) [Example 55]	295.2 ± 89.3 /10 min
COc1cc(-c2cc(=O)c3c(OC)c(OC)c(OC)c(OC)c3o2)cc(OC)c1OC [Example 15, 5,6,7,8,3′,4′,5′-heptamethoxyl-flavone]	308.5 ± 75.2 /10 min
CC=Cc1cc(C(=O)O)c2c(=O)cc(-c3cc(C#N)c(F)c(C(=O)O)c3)oc2c1 [Example 22]	301.3 ± 76.6 /10 min

Same assay, conditions: intragastric, 50 mg/kg, 1 h after administration, x ± s, n = 10

Compound	Times of activities in 1 h after drug administration/10 min
COc1ccc(C2CC(=O)c3cc(CCS(=O)(=O)O)c(C4CCNC4)c(N)c3O2)cc1SC#N (stereo not drawn) [Example 55]	138.3 ± 67.6 /10 min
COc1cc(-c2cc(=O)c3c(OC)c(OC)c(OC)c(OC)c3o2)cc(OC)c1OC [Example 15, 5,6,7,8,3′,4′,5′-heptamethoxyl-flavone]	254.7 ± 41.2 /10 min
CC=Cc1cc(C(=O)O)c2c(=O)cc(-c3cc(C#N)c(F)c(C(=O)O)c3)oc2c1 [Example 22]	299.4 ± 42.7 /10 min

Same assay, conditions: intragastric, 50 mg/kg, 2 h after administration, x ± s, n = 10

Compound	Times of activities in 2 h after drug administration/10 min
COc1ccc(C2CC(=O)c3cc(CCS(=O)(=O)O)c(C4CCNC4)c(N)c3O2)cc1SC#N (stereo not drawn) [Example 55]	135.6 ± 69.2 /10 min
COc1cc(-c2cc(=O)c3c(OC)c(OC)c(OC)c(OC)c3o2)cc(OC)c1OC [Example 15, 5,6,7,8,3′,4′,5′-heptamethoxyl-flavone]	239.9 ± 42.6 /10 min
CC=Cc1cc(C(=O)O)c2c(=O)cc(-c3cc(C#N)c(F)c(C(=O)O)c3)oc2c1 [Example 22]	255.3 ± 41.3 /10 min

Same assay, conditions: intragastric, 50 mg/kg, 24 h after administration, x ± s, n = 10

Compound	Times of activities in 24 h after drug administration/10 min
COc1ccc(C2CC(=O)c3cc(CCS(=O)(=O)O)c(C4CCNC4)c(N)c3O2)cc1SC#N (stereo not drawn) [Example 55]	297.5 ± 81.0 /10 min
COc1cc(-c2cc(=O)c3c(OC)c(OC)c(OC)c(OC)c3o2)cc(OC)c1OC [Example 15, 5,6,7,8,3′,4′,5′-heptamethoxyl-flavone]	317.4 ± 95.6 /10 min
CC=Cc1cc(C(=O)O)c2c(=O)cc(-c3cc(C#N)c(F)c(C(=O)O)c3)oc2c1 [Example 22]	302.6 ± 91.8 /10 min

Same assay, conditions: intragastric, 100 mg/kg, 1 h after administration, x ± s, n = 10

Compound	Times of activities in 1 h after drug administration/10 min
COc1ccc(C2CC(=O)c3cc(CCS(=O)(=O)O)c(C4CCNC4)c(N)c3O2)cc1SC#N (stereo not drawn) [Example 55]	110.8 ± 55.7 /10 min
COc1cc(-c2cc(=O)c3c(OC)c(OC)c(OC)c(OC)c3o2)cc(OC)c1OC [Example 15, 5,6,7,8,3′,4′,5′-heptamethoxyl-flavone]	179.6 ± 44.3 /10 min
CC=Cc1cc(C(=O)O)c2c(=O)cc(-c3cc(C#N)c(F)c(C(=O)O)c3)oc2c1 [Example 22]	281.5 ± 48.7 /10 min

Same assay, conditions: intragastric, 100 mg/kg, 2 h after administration, x ± s, n = 10

Compound	Times of activities in 2 h after drug administration/10 min
COc1ccc(C2CC(=O)c3cc(CCS(=O)(=O)O)c(C4CCNC4)c(N)c3O2)cc1SC#N (stereo not drawn) [Example 55]	103.8 ± 60.9 /10 min
COc1cc(-c2cc(=O)c3c(OC)c(OC)c(OC)c(OC)c3o2)cc(OC)c1OC [Example 15, 5,6,7,8,3′,4′,5′-heptamethoxyl-flavone]	152.5 ± 36.9 /10 min
CC=Cc1cc(C(=O)O)c2c(=O)cc(-c3cc(C#N)c(F)c(C(=O)O)c3)oc2c1 [Example 22]	225.6 ± 45.3 /10 min

Same assay, conditions: intragastric, 100 mg/kg, 24 h after administration, x ± s, n = 10

Compound	Times of activities in 24 h after drug administration/10 min
COc1ccc(C2CC(=O)c3cc(CCS(=O)(=O)O)c(C4CCNC4)c(N)c3O2)cc1SC#N (stereo not drawn) [Example 55]	289.8 ± 89.7 /10 min
COc1cc(-c2cc(=O)c3c(OC)c(OC)c(OC)c(OC)c3o2)cc(OC)c1OC [Example 15, 5,6,7,8,3′,4′,5′-heptamethoxyl-flavone]	287.8 ± 89.1 /10 min
CC=Cc1cc(C(=O)O)c2c(=O)cc(-c3cc(C#N)c(F)c(C(=O)O)c3)oc2c1 [Example 22]	315.4 ± 78.2 /10 min

Test system: Kunming mice
Assay: Influence on hypnosis effect with pentobarbital sodium doses below the threshold (25 mg/kg i.p.)
Type: in vivo
Settings: test drug 25 mg/kg intragastric single dose, pentobarbital sodium 25 mg/kg i.p. 60 min later, sleep observed in 30 min, n = 10
In short: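 Percentage of mice sleeping within 30 min after subthreshold pentobarbital sodium (25 mg/kg i.p.), defined by loss of righting reflex over 1 min, analysed by χ2. Compound in 0.5% CMC-Na given intragastrically at 25/50/100 mg/kg 60 min before; groups of 10 Kunming mice, both sexes.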

Compound	Number of sleeping animals	rate of sleeping (%)
COc1ccc(C2CC(=O)c3cc(CCS(=O)(=O)O)c(C4CCNC4)c(N)c3O2)cc1SC#N (stereo not drawn) [Example 55]	5	50** %
COc1cc(-c2cc(=O)c3c(OC)c(OC)c(OC)c(OC)c3o2)cc(OC)c1OC [Example 15, 5,6,7,8,3′,4′,5′-heptamethoxyl-flavone]	3	30%
CC=Cc1cc(C(=O)O)c2c(=O)cc(-c3cc(C#N)c(F)c(C(=O)O)c3)oc2c1 [Example 22]	6	60** %

Same assay, conditions: test drug 50 mg/kg intragastric single dose, pentobarbital sodium 25 mg/kg i.p. 60 min later, sleep observed in 30 min, n = 10

Compound	Number of sleeping animals	rate of sleeping (%)
COc1ccc(C2CC(=O)c3cc(CCS(=O)(=O)O)c(C4CCNC4)c(N)c3O2)cc1SC#N (stereo not drawn) [Example 55]	6	60** %
COc1cc(-c2cc(=O)c3c(OC)c(OC)c(OC)c(OC)c3o2)cc(OC)c1OC [Example 15, 5,6,7,8,3′,4′,5′-heptamethoxyl-flavone]	6	60** %
CC=Cc1cc(C(=O)O)c2c(=O)cc(-c3cc(C#N)c(F)c(C(=O)O)c3)oc2c1 [Example 22]	7	70** %

Same assay, conditions: test drug 100 mg/kg intragastric single dose, pentobarbital sodium 25 mg/kg i.p. 60 min later, sleep observed in 30 min, n = 10

Compound	Number of sleeping animals	rate of sleeping (%)
COc1ccc(C2CC(=O)c3cc(CCS(=O)(=O)O)c(C4CCNC4)c(N)c3O2)cc1SC#N (stereo not drawn) [Example 55]	9	90*** %
COc1cc(-c2cc(=O)c3c(OC)c(OC)c(OC)c(OC)c3o2)cc(OC)c1OC [Example 15, 5,6,7,8,3′,4′,5′-heptamethoxyl-flavone]	8	80*** %
CC=Cc1cc(C(=O)O)c2c(=O)cc(-c3cc(C#N)c(F)c(C(=O)O)c3)oc2c1 [Example 22]	9	90*** %

Test system: Kunming mice
Assay: Influence on hypnosis effect with pentobarbital sodium doses at the threshold (50 mg/kg i.p.)
Type: in vivo
Settings: 25 mg/kg intragastric single dose, pentobarbital sodium 50 mg/kg i.p. 60 min later, x ± s, n = 10
In short: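 Pentobarbital sodium (0.3%, 50 mg/kg i.p.) injected 60 min after a single intragastric dose (25, 50, 100 mg/kg, 0.5% CMC-Na vehicle) in Kunming mice, 10 per group, sexes balanced. Onset and length of sleep (righting reflex lost over 1 min) analysed by ANOVA; sleeping incidence by χ2 test.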

Compound	duration of sleep	time to sleep
COc1ccc(C2CC(=O)c3cc(CCS(=O)(=O)O)c(C4CCNC4)c(N)c3O2)cc1SC#N (stereo not drawn) [Example 55]	37.98 ± 13.71 min	4.03 ± 1.97 min
COc1cc(-c2cc(=O)c3c(OC)c(OC)c(OC)c(OC)c3o2)cc(OC)c1OC [Example 15, 5,6,7,8,3′,4′,5′-heptamethoxyl-flavone]	39.93 ± 15.22 min	4.31 ± 1.65 min
CC=Cc1cc(C(=O)O)c2c(=O)cc(-c3cc(C#N)c(F)c(C(=O)O)c3)oc2c1 [Example 22]	30.12 ± 20.60 min	4.79 ± 2.43 min

Same assay, conditions: 50 mg/kg intragastric single dose, pentobarbital sodium 50 mg/kg i.p. 60 min later, x ± s, n = 10

Compound	duration of sleep	time to sleep
COc1ccc(C2CC(=O)c3cc(CCS(=O)(=O)O)c(C4CCNC4)c(N)c3O2)cc1SC#N (stereo not drawn) [Example 55]	58.53 ± 11.96 min	3.52 ± 2.22 min
COc1cc(-c2cc(=O)c3c(OC)c(OC)c(OC)c(OC)c3o2)cc(OC)c1OC [Example 15, 5,6,7,8,3′,4′,5′-heptamethoxyl-flavone]	51.53 ± 21.35 min	3.53 ± 1.22 min
CC=Cc1cc(C(=O)O)c2c(=O)cc(-c3cc(C#N)c(F)c(C(=O)O)c3)oc2c1 [Example 22]	37.78 ± 14.02 min	4.68 ± 1.59 min

Same assay, conditions: 100 mg/kg intragastric single dose, pentobarbital sodium 50 mg/kg i.p. 60 min later, x ± s, n = 10

Compound	duration of sleep	time to sleep
COc1ccc(C2CC(=O)c3cc(CCS(=O)(=O)O)c(C4CCNC4)c(N)c3O2)cc1SC#N (stereo not drawn) [Example 55]	65.94 ± 14.95 min	3.21 ± 2.01 min
COc1cc(-c2cc(=O)c3c(OC)c(OC)c(OC)c(OC)c3o2)cc(OC)c1OC [Example 15, 5,6,7,8,3′,4′,5′-heptamethoxyl-flavone]	58.25 ± 21.48 min	3.29 ± 1.58 min
CC=Cc1cc(C(=O)O)c2c(=O)cc(-c3cc(C#N)c(F)c(C(=O)O)c3)oc2c1 [Example 22]	52.57 ± 20.74 min	3.88 ± 1.18 min
